This is an account of results in ChEMBL document CHEMBL5321211, “Synthesis and evaluation of anti-yellow fever virus activity of new 6-aryl-3-R-amino-1,2,4-triazin-5(4H)-ones” (Eur J Med Chem, 2023).

Converted amounts (≈) assume the structure as drawn. Some results are limits rather than exact numbers.

The EC50 is the concentration giving half of the maximal effect. What is called IC50 is the concentration that gives 50% inhibition. As a reminder, the EC90 is the concentration at which the effect reaches the 90% level.

One data set relates to Yellow fever virus. The data set is described as follows: Antiviral activity against Yellow fever virus 17D infected in African green monkey Vero assessed as reduction in cytopathic effect preincubated with compound for 5 mins followed by viral infection and measured at 7 days. The class given is functional, organism-based.
Conditions: not given
As to `COc1ccccc1Nc1nnc(Cc2ccc(C)cc2)c(=O)[nH]1`, the EC50 amounted to 4.2 µg/mL (≈ 13 µM).

For the compound `Cc1ccc(Cc2nnc(Nc3cccc(F)c3)[nH]c2=O)cc1`, the EC50 came to 6.2 µg/mL (≈ 20 µM).

For the compound `Cc1ccc(Cc2nnc(Nc3cccc(C)c3)[nH]c2=O)cc1`, the EC50 was 10 µg/mL (≈ 32.6 µM).

Take `COc1ccc(Nc2nnc(Cc3ccc(C)cc3)c(=O)[nH]2)c(OC)c1`: the EC50 amounted to 3.5 µg/mL (≈ 9.93 µM).

The test system of the next data set is Yellow fever virus. The data set is described as follows: Antiviral activity against Yellow fever virus 17D infected in Huh-7 cells assessed as reduction in cytopathic effect. The class given is functional, organism-based.
Conditions: not given
As for `CC[C@H](C)[C@@H]1N=C(c2ccccc2)c2cc(Cl)ccc2N(CC(=O)O)C1=O`, the EC50 came out at 0.21 µM.

System in another data set: not listed separately
Nature of the data set: Selectivity index, ratio of CC50 for cytotoxicity against African green monkey Vero cells to EC50 for antiviral activity against Yellow fever virus 17D infected in African green monkey Vero assessed as reduction in cytopathic effect. The class given is toxicity, cell-based. To be noted: read-out: Ratio CC50/EC50.
For `COc1ccccc1Nc1nnc(Cc2ccc(C)cc2)c(=O)[nH]1`, the selectivity ratio was greater than 36.

Consider `Cc1ccc(Cc2nnc(Nc3cccc(F)c3)[nH]c2=O)cc1`, for which the selectivity ratio was greater than 53.

For the compound `Cc1ccc(Cc2nnc(Nc3cccc(C)c3)[nH]c2=O)cc1`, the selectivity ratio was found to be 23.

As for `COc1ccc(Nc2nnc(Cc3ccc(C)cc3)c(=O)[nH]2)c(OC)c1`, the selectivity ratio came to 51.

System in another data set: not listed separately
The data set is described as follows: Selectivity index, ratio of IC50 for cytotoxicity against African green monkey Vero cells assessed as inhibition of cell growth by neutral red uptake assay to EC50 for antiviral activity against Yellow fever virus 17D infected in African green monkey Vero assessed as reduction in cytopathic effect. The class given is toxicity, cell-based. To be noted: read-out: Ratio IC50/EC50. For orientation: Protection from cytopathic effect is a common read-out in antiviral testing.
For the compound `Cc1ccc(Cc2nnc(Nc3ccccc3F)[nH]c2=O)cc1`, the selectivity ratio is greater than 19.

Take `COc1ccccc1Nc1nnc(Cc2ccc(C)cc2)c(=O)[nH]1`: the selectivity ratio was greater than 31.

`COc1ccc(OC)c(Nc2nnc(Cc3ccc(C)cc3)c(=O)[nH]2)c1`: the selectivity ratio stood at 5.5.

In the case of `Cc1ccc(Cc2nnc(Nc3ccc(F)cc3)[nH]c2=O)cc1`, the selectivity ratio is greater than 14.

In the case of `Cc1ccc(Cc2nnc(NC3CCCCC3)[nH]c2=O)cc1`, the selectivity ratio is greater than 3.3.

On to `Cc1ccc(Cc2nnc(Nc3cccc(F)c3)[nH]c2=O)cc1`, for which the selectivity ratio is greater than 14.

Consider `Cc1ccc(Cc2nnc(Nc3ccccc3C)[nH]c2=O)cc1`, for which the selectivity ratio was greater than 5.6.

For the compound `COc1ccc(Nc2nnc(Cc3ccc(C)cc3)c(=O)[nH]2)cc1OC`, the selectivity ratio came to 1.6.

Turning to `Cc1ccc(Cc2nnc(Nc3cccc(C)c3)[nH]c2=O)cc1`, the selectivity ratio was greater than 29.

For the compound `Cc1ccc(Cc2nnc(Nc3cc(C)ccc3C)[nH]c2=O)cc1`, the selectivity ratio was greater than 4.3.

Regarding `Cc1ccc(Cc2nnc(Nc3ccccc3)[nH]c2=O)cc1`, the selectivity ratio was greater than 7.1.

Take `COc1ccc(Nc2nnc(Cc3ccc(C)cc3)c(=O)[nH]2)c(OC)c1`: the selectivity ratio is greater than 17.

System in a further data set: not listed separately
The data set is described as follows: Cytotoxicity against African green monkey Vero cells assessed as inhibition of cell growth by visual analysis. The class given is toxicity, cell-based, Chlorocebus sabaeus.
Conditions: not given
Turning to `Cc1ccc(Cc2nnc(Nc3ccccc3F)[nH]c2=O)cc1`, the 50% inhibitory concentration (IC50) turned out to be 43 µg/mL (≈ 139 µM).

Consider `COc1ccccc1Nc1nnc(Cc2ccc(C)cc2)c(=O)[nH]1`, for which the IC50 came out at 27 µg/mL (≈ 83.8 µM).

On to `Cc1ccc(Cc2nnc(Nc3ccc(F)cc3)[nH]c2=O)cc1`, for which the IC50 came to 51 µg/mL (≈ 164 µM).

On to `Cc1ccc(Cc2nnc(Nc3cccc(F)c3)[nH]c2=O)cc1`, for which the IC50 turned out to be 51 µg/mL (≈ 164 µM).

In the case of `Cc1ccc(Cc2nnc(Nc3cccc(C)c3)[nH]c2=O)cc1`, the half-maximal inhibitory concentration (IC50) stood at 58 µg/mL (≈ 189 µM).

Take `Cc1ccc(Cc2nnc(Nc3ccccc3)[nH]c2=O)cc1`: the IC50 came to 16 µg/mL (≈ 54.7 µM).

In the case of `COc1ccc(Nc2nnc(Cc3ccc(C)cc3)c(=O)[nH]2)c(OC)c1`, the IC50 was 58 µg/mL (≈ 165 µM).

Another data set has as its system Yellow fever virus. The data set is described as follows: Antiviral activity against Yellow fever virus. The class given is functional, organism-based.
Conditions: not given
On to `CCn1c(=O)/c(=C2\Sc3c(F)cccc3N2C)s/c1=C\c1cccc[n+]1C`, for which the EC50 is less than 1 µM.

Take `C[C@@H]1[C@@H](CO)O[C@@H](n2ccc(N)nc2=O)[C@]1(C)O`: the EC50 was 0.7 µM.

Take `O=c1cnn([C@@H]2O[C@H](CO)[C@@H](O)[C@H]2O)c(=O)[nH]1` [6-AZAURIDINE]: the EC50 was 46 µM.

System in the next data set: not listed separately
The data set is described as follows: Cytotoxicity against African green monkey Vero cells assessed as inhibition of cell growth by neutral red uptake assay. The class given is toxicity, cell-based, Chlorocebus sabaeus.
Conditions: not given
With `Cc1ccc(Cc2nnc(Nc3ccccc3F)[nH]c2=O)cc1`, the concentration for half-maximal inhibition (IC50) is greater than 100 µg/mL.

Take `COc1ccccc1Nc1nnc(Cc2ccc(C)cc2)c(=O)[nH]1`: the IC50 was greater than 100 µg/mL.

`COc1ccc(OC)c(Nc2nnc(Cc3ccc(C)cc3)c(=O)[nH]2)c1`: the half-maximal inhibitory concentration (IC50) amounted to 16 µg/mL (≈ 45.4 µM).

Take `Cc1ccc(Cc2nnc(Nc3ccc(F)cc3)[nH]c2=O)cc1`: the IC50 is greater than 100 µg/mL.

As for `Cc1ccc(Cc2nnc(NC3CCCCC3)[nH]c2=O)cc1`, the IC50 is greater than 100 µg/mL.

Take `Cc1ccc(Cc2nnc(Nc3cccc(F)c3)[nH]c2=O)cc1`: the IC50 was greater than 100 µg/mL.

As for `Cc1ccc(Cc2nnc(Nc3ccccc3C)[nH]c2=O)cc1`, the IC50 is greater than 100 µg/mL.

In the case of `COc1ccc(Nc2nnc(Cc3ccc(C)cc3)c(=O)[nH]2)cc1OC`, the IC50 is 18 µg/mL (≈ 51.1 µM).

`Cc1ccc(Cc2nnc(Nc3cccc(C)c3)[nH]c2=O)cc1`: the IC50 was greater than 100 µg/mL.

For `Cc1ccc(Cc2nnc(Nc3cc(C)ccc3C)[nH]c2=O)cc1`, the IC50 is greater than 100 µg/mL.

Turning to `Cc1ccc(Cc2nnc(Nc3ccccc3)[nH]c2=O)cc1`, the IC50 is greater than 100 µg/mL.

As for `COc1ccc(Nc2nnc(Cc3ccc(C)cc3)c(=O)[nH]2)c(OC)c1`, the IC50 is greater than 100 µg/mL.

The test system of another data set is Yellow fever virus. The data set is described as follows: Antiviral activity against Yellow fever virus 17D infected in African green monkey Vero assessed as reduction in cytopathic effect preincubated with compound for 5 mins followed by viral infection and measured at 72 to 120 hrs. The class given is functional, organism-based.
Conditions: not given
With `COc1ccccc1Nc1nnc(Cc2ccc(C)cc2)c(=O)[nH]1`, the EC50 was 13 µM.

For `Cc1ccc(Cc2nnc(Nc3cccc(F)c3)[nH]c2=O)cc1`, the EC50 was 20 µM.

As for `Cc1ccc(Cc2nnc(Nc3cccc(C)c3)[nH]c2=O)cc1`, the EC50 came to 33 µM.

Take `COc1ccc(Nc2nnc(Cc3ccc(C)cc3)c(=O)[nH]2)c(OC)c1`: the EC50 turned out to be 9.9 µM.

System in a further data set: not listed separately
Nature of the data set: Selectivity index, ratio of IC50 for cytotoxicity against African green monkey Vero cells assessed as inhibition of cell growth by visual analysis to EC50 for antiviral activity against Yellow fever virus 17D infected in African green monkey Vero assessed as reduction in cytopathic effect. The class given is toxicity, cell-based. To be noted: read-out: Ratio IC50/EC50.
As to `Cc1ccc(Cc2nnc(Nc3ccccc3F)[nH]c2=O)cc1`, the selectivity ratio was 8.6.

Consider `COc1ccccc1Nc1nnc(Cc2ccc(C)cc2)c(=O)[nH]1`, for which the selectivity ratio was found to be 6.4.

For `Cc1ccc(Cc2nnc(Nc3ccc(F)cc3)[nH]c2=O)cc1`, the selectivity ratio is 5.1.

Consider `Cc1ccc(Cc2nnc(Nc3cccc(F)c3)[nH]c2=O)cc1`, for which the selectivity ratio turned out to be 8.2.

For the compound `Cc1ccc(Cc2nnc(Nc3ccccc3)[nH]c2=O)cc1`, the selectivity ratio came out at 2.2.

Turning to `COc1ccc(Nc2nnc(Cc3ccc(C)cc3)c(=O)[nH]2)c(OC)c1`, the selectivity ratio was 17.

Another data set concerns Yellow fever virus. Nature of the data set: Antiviral activity against Yellow fever virus 17D infected in African green monkey Vero assessed as reduction in cytopathic effect preincubated with compound for 5 mins followed by viral infection and measured at 72 to 120 hrs by neutral red uptake assay. The class given is functional, organism-based.
Conditions: not given
As to `Cc1ccc(Cc2nnc(Nc3ccccc3F)[nH]c2=O)cc1`, the EC50 turned out to be 1 µg/mL (≈ 3.22 µM).

Take `COc1ccccc1Nc1nnc(Cc2ccc(C)cc2)c(=O)[nH]1`: the EC50 came out at 0.94 µg/mL (≈ 2.92 µM).

For the compound `COc1ccc(OC)c(Nc2nnc(Cc3ccc(C)cc3)c(=O)[nH]2)c1`, the EC50 stood at 2.9 µg/mL (≈ 8.23 µM).

In the case of `Cc1ccc(Cc2nnc(Nc3ccc(F)cc3)[nH]c2=O)cc1`, the EC50 was determined as 1 µg/mL (≈ 3.22 µM).

With `Cc1ccc(Cc2nnc(NC3CCCCC3)[nH]c2=O)cc1`, the EC50 was 30 µg/mL (≈ 101 µM).

With `Cc1ccc(Cc2nnc(Nc3cccc(F)c3)[nH]c2=O)cc1`, the EC50 came to 1 µg/mL (≈ 3.22 µM).

With `Cc1ccc(Cc2nnc(Nc3ccccc3C)[nH]c2=O)cc1`, the EC50 is 18 µg/mL (≈ 58.8 µM).

As to `COc1ccc(Nc2nnc(Cc3ccc(C)cc3)c(=O)[nH]2)cc1OC`, the concentration giving a half-maximal response (EC50) is 11 µg/mL (≈ 31.2 µM).

As for `Cc1ccc(Cc2nnc(Nc3cccc(C)c3)[nH]c2=O)cc1`, the EC50 is 0.48 µg/mL (≈ 1.57 µM).

With `Cc1ccc(Cc2nnc(Nc3cc(C)ccc3C)[nH]c2=O)cc1`, the EC50 is 23 µg/mL (≈ 71.8 µM).

`Cc1ccc(Cc2nnc(Nc3ccccc3)[nH]c2=O)cc1`: the concentration giving a half-maximal response (EC50) is 6.2 µg/mL (≈ 21.2 µM).

Turning to `COc1ccc(Nc2nnc(Cc3ccc(C)cc3)c(=O)[nH]2)c(OC)c1`, the EC50 came to 1 µg/mL (≈ 2.84 µM).

The test system of a further data set is Yellow fever virus. The data set is described as follows: Antiviral activity against Yellow fever virus 17D infected in African green monkey Vero assessed as reduction in virus yield preincubated with compound for 5 mins followed by viral infection and measured at 72 to 120 hrs. The class given is functional. To be noted: time 4325-7205 min.
Turning to `COc1ccccc1Nc1nnc(Cc2ccc(C)cc2)c(=O)[nH]1`, the EC90 worked out at 50 µg/mL (≈ 155 µM).

As to `Cc1ccc(Cc2nnc(Nc3cccc(F)c3)[nH]c2=O)cc1`, the EC90 stood at 65 µg/mL (≈ 209 µM).

As to `Cc1ccc(Cc2nnc(Nc3cccc(C)c3)[nH]c2=O)cc1`, the EC90 came out at 158 µg/mL (≈ 516 µM).

Consider `COc1ccc(Nc2nnc(Cc3ccc(C)cc3)c(=O)[nH]2)c(OC)c1`, for which the EC90 was determined as 28 µg/mL (≈ 79.5 µM).

In the next data set the test system is Yellow fever virus. Nature of the data set: Antiviral activity against Yellow fever virus 17D infected in African green monkey Vero assessed as reduction in cytopathic effect preincubated with compound for 5 mins followed by viral infection and measured at 72 to 120 hrs by visual analysis.
Conditions: not given
The class given is functional, organism-based.
For `Cc1ccc(Cc2nnc(Nc3ccccc3F)[nH]c2=O)cc1`, the EC50 turned out to be 5 µg/mL (≈ 16.1 µM).

Regarding `COc1ccccc1Nc1nnc(Cc2ccc(C)cc2)c(=O)[nH]1`, the EC50 worked out at 4.2 µg/mL (≈ 13 µM).

Turning to `Cc1ccc(Cc2nnc(Nc3ccc(F)cc3)[nH]c2=O)cc1`, the EC50 was 10 µg/mL (≈ 32.2 µM).

As to `Cc1ccc(Cc2nnc(Nc3cccc(F)c3)[nH]c2=O)cc1`, the EC50 was found to be 6.2 µg/mL (≈ 20 µM).

For `Cc1ccc(Cc2nnc(Nc3cccc(C)c3)[nH]c2=O)cc1`, the EC50 came to 10 µg/mL (≈ 32.6 µM).

For `Cc1ccc(Cc2nnc(Nc3ccccc3)[nH]c2=O)cc1`, the EC50 came to 7.4 µg/mL (≈ 25.3 µM).

In the case of `COc1ccc(Nc2nnc(Cc3ccc(C)cc3)c(=O)[nH]2)c(OC)c1`, the EC50 stood at 3.5 µg/mL (≈ 9.93 µM).
